Laboratory results taken from US7414061B2, “Aryl-isoxazol-4-yl-imidazole derivatives” (Hoffmann-La Roche Inc., priority 2005, dated 2008).
Like-named read-outs stand apart in the source and are kept apart here.

Target: T1, GABA A receptor α5β3γ2 (hα5) (Homo sapiens, UniProt P18507+P31644)
T1 construct: expressed in transfected cells; host or cells: HEK293 (transiently transfected), membrane preparation
Experiment: [3H]flumazenil competition binding assay, human GABA A α5β3γ2
Protocol: The affinity of compounds at GABA A receptor subtypes was measured by competition for [3H]flumazenil (85 Ci/mmol; Roche) binding to HEK293 cells expressing rat (stably transfected) or human (transiently transfected) receptors of composition α1β3γ2, α2β3γ2, α3β3γ2 and α5β3γ2.
Cell pellets were suspended in Krebs-tris buffer (4.8 mM KCl, 1.2 mM CaCl2, 1.2 mM MgCl2, 120 mM NaCl, 15 mM Tris; pH 7.5; binding assay buffer), homogenized by polytron for ca. 20 sec on ice and centrifuged for 60 min at 4° C. (50000 g; Sorvall, rotor: SM24=20000 rpm). The cell pellets were resuspended in Krebs-tris buffer and homogenized by polytron for ca. 15 sec on ice. Protein was measured (Bradford method, Bio-Rad) and aliquots of 1 mL were prepared and stored at −80° C.
Radioligand binding assays were carried out in a volume of […] (96-well plates) which contained […] of cell membranes, [3H]flumazenil at a concentration of 1 nM for α1, α2, α3 subunits and 0.5 nM for α5 subunits and the test compound in the range of […]. Nonspecific binding was defined by 10^−5 M diazepam and typically represented less than 5% of the total binding. Assays were incubated to equilibrium for 1 hour at 4° C. and harvested onto GF/C uni-filters (Packard) by filtration using a Packard harvester and washing with ice-cold wash buffer (50 mM Tris; pH 7.5). After drying, filter-retained radioactivity was detected by liquid scintillation counting. Ki values were calculated using Excel-Fit (Microsoft) and are the means of two determinations.

[1] = displacement of [3H]flumazenil (0.5 nM) from HEK293 cell membranes expressing α5β3γ2, means of two determinations, read-out: Ki[nM] hα5

SMILES | Ki [nM] | Ki [1] [nM]
C#CCNC(=O)c1ccc(-n2cnc(-c3c(-c4ccccc4)noc3C)c2)cc1 [Example 72, 4-[4-(5-Methyl-3-phenyl-isoxazol-4-yl)-imidazol-1-yl]-N-prop-2-ynyl-benzamide] | 13.2 | –
Cc1onc(-c2ccccc2)c1-c1cn(-c2ccc([N+](=O)[O-])cc2)c(COCc2cccc(F)c2)n1 [Example 158, 4-[2-(3-Fluoro-benzyloxymethyl)-1-(4-nitro-phenyl)-1H-imidazol-4-yl]-5-methyl-3-phenyl-isoxazole] | – | 17
Cc1onc(-c2ccccc2)c1-c1cn(-c2ccc(C(=O)NC3CC3)cc2)cn1 [Example 74, N-Cyclopropyl-4-[4-(5-methyl-3-phenyl-isoxazol-4-yl)-imidazol-1-yl]-benzamide] | – | 5.1
Cc1onc(-c2ccccc2)c1-c1cn(-c2ccc(C(=O)NCc3cccnc3)cc2)cn1 [Example 78, 4-[4-(5-Methyl-3-phenyl-isoxazol-4-yl)-imidazol-1-yl]-N-pyridin-3-ylmethyl-benzamide] | – | 12.8
Cc1onc(-c2ccccc2)c1-c1cn(-c2ccc([N+](=O)[O-])cc2)c(COCc2ccc(C(F)(F)F)nc2)n1 [Example 164, 5-[4-(5-Methyl-3-phenyl-isoxazol-4-yl)-1-(4-nitro-phenyl)-1H-imidazol-2-ylmethoxymethyl]-2-trifluoromethyl-pyridine] | – | 27
Cc1onc(-c2ccc(F)cc2)c1-c1cn(-c2ccncc2)cn1 [Example 117, 4-{4-[3-(4-Fluoro-phenyl)-5-methyl-isoxazol-4-yl]-imidazol-1-yl}-pyridine] | – | 13.3
CCc1onc(-c2ccccc2)c1-c1cn(-c2ccc(C(C)=O)cc2)cn1 [Example 30, 1-{4-[4-(5-Ethyl-3-phenyl-isoxazol-4-yl)-imidazol-1-yl]-phenyl}-ethanone] | – | 9.9
